Measured values taken from US5622934A, “Peptides with an insulin-like action” (priority 1991, dated 1997).

Assays:
rat fat cells = assay: Lipogenesis: conversion of glucose to toluene-soluble products in isolated rat fat cells; format: cell-based; conditions: for Concentration [μM] at which 25% of the max. HI action is reached (lipogenesis): 25% of the maximum human insulin action; for Lipogenesis % of the max. HI action: 90 min at 37° C., D-[3-3H]glucose, human insulin (HI) = 100%
Method: (§1) The biological activity of the peptides of formula I according to the invention is determined with the aid of preparatively isolated rat fat cells and diaphragm fragments.
(§2) Rat fat cells were prepared as follows: Fatty tissue of the epididymis (Wistar rat, 160-180 g, no feed restriction) is digested with collagenase and the resulting isolated fat cells are washed several times by flotation.
This test determines the insulin-stimulatable conversion of glucose to toluene-soluble products (triglycerides, phospholipids, fatty acids), requiring the glucose transport and the triglyceride (glycerol-3-P synthesis, esterification)/phospholipid/fatty acid synthesis, including the insulin signal transmission cascade.
Rat fat cells in KRH buffer are incubated for 90 min at 37° C. with D-[3-^3 H]glucose (0.2 mM or 1 mM final concentration) in the presence or absence of insulin or peptides according to the invention. By the addition of a toluene-soluble scintillation cocktail, the cells are digested and the lipids separated from water-soluble products and the incubation medium. After phase separation, the radioactivity incorporated into lipids is determined by scintillation measurement directly without removal of the aqueous phase ([^3 H]lipid [dpm×10^-3 ]).
(§3) The action of human insulin (HI) is given a value of 100%. The concentration data of the peptides according to the invention used are based on the concentration at which 25% or 20% of the maximum HI action is reached.

[1] = test system: plasma membrane vesicles from rat fat cells; assay: Glucose transport activity in isolated plasma membrane vesicles; format: biochemical; conditions: for Concentration [μM] at which 20% of the max. HI action is reached (glucose transport): 20% of the maximum human insulin action; for Glucose transport % of the max. HI action: 30 min at 25° C., then 10 sec with 50 μM D-[3-3H]glucose, human insulin (HI) = 100%
Method: as §1, §2
C) Glucose transport activity
Isolated plasma membrane vesicles are obtained from rat fat cells by washing the fat cells twice in homogenization buffer (20 mM trihydroxyaminomethane (Tris)/HCl, pH 7.4, 1 mM, 4° C., EDTA, 0.25M sucrose) and then homogenizing them in 20 ml of the same buffer (glass homogenizer with Teflon pestle).
The homogenate is centrifuged (16,000×g, 15 min) and the sediment is suspended in the same buffer and centrifuged again. The sediment is suspended in 5 ml of homogenization buffer and layered onto a sucrose cushion (1.12M sucrose, 20 mM Tris/HCl, pH 7.4, 1 mM EDTA); after centrifugation (100,000×g, 70 min), the interphase containing the plasma membrane vesicles is removed with a syringe, diluted with 45 ml of buffer and centrifuged again (48,000×g, 45 min). The sediment is suspended in 10 ml of buffer, centrifuged again and resuspended in 3 ml of buffer.
Isolated plasma membrane vesicles are incubated for 30 min at 25° C. in the presence or absence of insulin or the peptides according to the invention. The vesicles are then incubated for 10 sec at 25° C. with 50 μM D-[3-^3 H]glucose and […] of the same specific radioactivity. The mixtures are rapidly filtered with suction on nitrocellulose filters. The filters are washed copiously and dried. Their radioactivity is determined by liquid scintillation measurement. The specific transport (D-[^3 H]glucose/L-[^4 C]glucose [dpm×10^-3 ]) is calculated as the difference between the [^3 H] and [^14 C] radioactivity.
as §3

rat diaphragm fragments = assay: Glycogenesis: glycogen synthesis in rat diaphragm fragments; format: cell-based; conditions: for Concentration [μM] at which 25% of the max. HI action is reached (glycogenesis): 25% of the maximum human insulin action; for Glycogenesis % of the max. HI action: 15 min at 37° C., 50 μM D-[U-14C]glucose, human insulin (HI) = 100%
Method: as §1
Preparation of rat diaphragm fragments: Small tissue fragments (5 mm diameter) are punched out of hemidiaphragms (Wistar rat, 60-70 g, no feed restriction) which have been washed several times.
This test determines the insulin-stimulatable glycogen synthesis in muscle cells, comprising the glucose transport via the plasma membrane and the conversion of the glucose to glycogen, including the functional insulin signal transmission cascade.
Diaphragm fragments are incubated for 15 min at 37° C. in Krebs-Ringer-Henseleit buffer (KRH buffer) with 50 μM D-[U-^14 C]glucose in the presence or absence of insulin or the peptides according to the invention. After the medium has been filtered with suction, the tissue fragments are intensively washed, frozen at -70° C. and then homogenized at 2° C. in a Polytron pulverizer. The homogenate is centrifuged (2000 g) and the supernatant is pipetted onto filter paper. To determine the glycogen formed, the filters are transferred into trichloroacetic acid (TCA) (5%), washed with ethanol and acetone and dried and their radioactivity is determined via scintillation measurement ([^14 C]glycogen [dpm×10^-3 ]).
as §3

| Substance | Concentration [μM] at which 25% of the max. HI action is reached (lipogenesis) (rat fat cells) | Lipogenesis % of the max. HI action (rat fat cells) | Concentration [μM] at which 20% of the max. HI action is reached (glucose transport) [1] | Glucose transport % of the max. HI action [1] | Concentration [μM] at which 25% of the max. HI action is reached (glycogenesis) (rat diaphragm fragments) | Glycogenesis % of the max. HI action (rat diaphragm fragments) |
| --- | --- | --- | --- | --- | --- | --- |
| Acetyl--L--Tyr--L--Cys--L--Asn--NH--CH2 --CH2 OH [Example 11] | 200 µM | 36% | 260 µM | 40% | 240 µM | 45% |
| H--(3--(thien--2--yl)--L--Ala)--L--Cys--L--Asn--OH [Example 8] | 450 µM | 26% | 410 µM | 25% | 375 µM | 31% |
| H--D--Tyr--L--Cys--L--Asn--NH--CH2 --CH2 OH [Example 4] | 410 µM | 31% | 260 µM | 38% | – | 23% |
| H--L--Asn--L--Cys--L--Tyr--NH--CH2 --CH2 OH [Example 3] | 375 µM | 31% | 225 µM | 38% | 285 µM | 42% |
| H--L--Cys--L--Asn--NH--CH2 --CH2 OH [Example 5] | – | 21% | 600 µM | 25% | – | 16% |
| H--L--Cys--L--Tyr--NH--CH2 --CH2 OH [Example 6] | – | 17% | 750 µM | 24% | 480 µM | 32% |
| H--L--Tyr--L--Cys--L--Asn--NH--(CH2)2 --O--PO(OH)--O(CH2)2 --CN [Example 13] | 120 µM | 33% | 140 µM | 36% | 100 µM | 31% |
| H--L--Tyr--L--Cys--L--Asn--NH--(CH2)2 --O--PO(OH)--O--6Manα1--2Manα1--O--CH3 [Example 15] | 142 µM | 35% | 122 µM | 32% | 139 µM | 29% |
| H--L--Tyr--L--Cys--L--Asn--NH--CH2 --CH2 --NH2 [Example 10] | 330 µM | 30% | 300 µM | 42% | 450 µM | 25% |
| H--L--Tyr--L--Cys--L--Asn--NH--CH2 --CH2 --NH--gluconic acid [Example 9] | – | 12% | – | 15% | – | 11% |
| H--L--Tyr--L--Cys--L--Asn--OH [Example 12] | 750 µM | 26% | 880 µM | 20% | – | 15% |
| H--L--Tyr--L--Cys--NH--(CH2)4 --NH2 [Example 7] | – | 18% | – | 10% | – | 2% |
| H--L--Tyr--L--Cys--NH--CH2 --CH2 --NH2 [Example 2] | 500 µM | 32% | 350 µM | 40% | 650 µM | 28% |
| L--Tyr--L--Cys--L--Asn--NH--(CH2)2 --O--PO(OH)--O--6Manα1--2--Manα1--6Manα1--O--CH3 [Example 16] | 125 µM | 24% | 152 µM | 29% | 135 µM | 25% |
